Assay results from US10399933B2, “Inhibitors of indoleamine-2,3-dioxygenase for the treatment of cancer” (BRISTOL-MYERS SQUIBB COMPANY, priority 2015, dated 2019).

Target: human IDO1 (Homo sapiens, UniProt P14902)
Assay: Human IDO-1 inhibitory activity in HEK cells (human IDO1/HEK293 cellular assay)
Format: cell-based
Set-up: expressed in transfected cells
Conditions: HEK human IDO-1 cellular assay; 500 nM reference standard = 100% inhibition, DMSO = 0%
Description: They were cultured in medium (DMEM with 10% FBS) containing 1 mg/ml G418 for two weeks.
The human IDO1/HEK293 cells were seeded at 10,000 cells per 50 μL per well with RPMI/phenol red free media contains 10% FBS in a 384-well black wall clear bottom tissue culture plate (Matrix Technologies LLC) 100 nL of certain concentration of compound was then added to each well using ECHO liquid handling systems. The cells were incubated for 20 hours in 37° C. incubator with 5% CO2.
The compound treatments were stopped by adding trichloroacetic acid (Sigma-Aldrich) to a final concentration at 0.2%. The cell plate was further incubated at 50° C. for 30 minute. The equal volume supernatant (20 μL) and 0.2% (w/v) Ehrlich reagent (4-dimethylaminobenzaldehyde, Sigma-Aldrich) in glacial acetic acid were mixed in a new clear bottom 384-well plate. This plate was then incubated at room temperature for 30 minute. The absorbance at 490 nm was measured on Envision plate reader.

human IDO1, sequence (P14902 whole entry): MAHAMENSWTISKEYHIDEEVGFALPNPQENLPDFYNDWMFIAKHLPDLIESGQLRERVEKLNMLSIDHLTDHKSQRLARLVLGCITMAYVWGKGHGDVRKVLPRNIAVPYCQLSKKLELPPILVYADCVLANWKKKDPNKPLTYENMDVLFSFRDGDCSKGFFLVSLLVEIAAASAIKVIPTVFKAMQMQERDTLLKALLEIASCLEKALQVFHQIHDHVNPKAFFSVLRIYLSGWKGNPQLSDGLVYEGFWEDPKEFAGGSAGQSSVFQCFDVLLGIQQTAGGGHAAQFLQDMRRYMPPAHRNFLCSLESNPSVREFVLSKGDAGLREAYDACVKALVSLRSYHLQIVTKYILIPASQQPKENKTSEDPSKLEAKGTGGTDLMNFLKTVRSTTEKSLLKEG

IC50 [nM]	Compound
< 50	3-(4-((1,1- dioxidotetrahydro-2H- thiopyran-4-yl)(ethyl) amino)-3-((4-fluorophenyl) amino)phenyl)-4- isopropoxybutanoic acid [Example 300]
< 50	3-(4-((1,1-dioxidotetrahydro-2H- thiopyran-4-yl)(ethyl)amino)-3-((4- fluorophenyl)amino)phenyl)-4- isopropoxybutanoic acid [Example 338]
< 5	CCC(CC(=O)O)c1cc(F)c(N(CC(C)C)C2CCCCC2)c(NC(=O)Nc2ccc(Cl)cc2F)c1 (racemic) [Example 1090, 3-(3-(3-(4-chloro-2-fluorophenyl)ureido)-4-(cyclohexyl(isobutyl)amino)-5-fluorophenyl)pentanoic acid]
< 5	CCC(CC(=O)O)c1ccc(N(CC)C2CCCOC2)c(Nc2ccc(Cl)cc2)c1 (single isomer, unassigned) [Example 60 E1, 3-(3-((4-Chlorophenyl)amino)-4-(ethyl(tetrahydro-2H-pyran-3-yl)amino)phenyl)pentanoic Acid]
< 50	CC[C@H](CC(=O)O)c1ccc(N2CCOC[C@@H]2C(C)C)c(Nc2ccc(F)cc2)c1 (single isomer, unassigned) [Example 90]
< 5	CCOc1ncc(Nc2cc(C(CC)CC(=O)O)cc(F)c2N(CC(C)C)CC(C)C)cn1 (single isomer, unassigned) [Example 119, 3-(4-(diisobutylamino)-3-((2-ethoxypyrimidin-5-yl)amino)-5-fluorophenyl) pentanoic acid]
< 50	CCN(c1ccc([C@H](COC)CC(=O)O)cc1Nc1cnc(OC)nc1)C1CCOCC1 (single isomer, unassigned) [Example 387]
> 50	CCN(c1ccc([C@H](COC)CC(=O)O)cc1Nc1cnc(C)nc1)C1CCOCC1 (single isomer, unassigned) [Example 416]
< 5	CCC(CC(=O)O)c1ccc(N(CC)C2CCOCC2)c(NC(=O)Nc2ccc(C)cc2)c1 (single isomer, unassigned) [Example 487 Enantiomer 2, 3-(4-(Ethyl(tetrahydro-2H-pyran-4-yl)amino)-3-(3-(p-tolyl)ureido)phenyl)pentanoic Acid]
> 50	CCC(CC(=O)O)c1ccc(N(CC)C2CCOCC2)c(NC(=O)Nc2cnc(C)nc2)c1 (single isomer, unassigned) [Example 488 Enantiomer 2, 3-(4-(Ethyl(tetrahydro-2H-pyran-4-yl)amino)-3-(3-(2-methylpyrimidin-5-yl)ureido)phenyl)pentanoic Acid]
> 50	CCN(c1ccc(C(CC(=O)O)c2ccccc2)cc1NC(=O)Nc1ccc(C)cc1)C1CCOCC1 (single isomer, unassigned) [Example 594, 3-(4-(Ethyl(tetrahydro-2H-pyran-4-yl)amino)-3-(3-(p-tolyl)ureido)phenyl)-3-phenylpropanoic Acid]
> 50	CCN(c1ccc(C(CC(=O)O)c2ccccc2)cc1NC(=O)Nc1cc(C)on1)C1CCOCC1 (single isomer, unassigned) [Example 597, 3-(4-(ethyl(tetrahydro-2H-pyran-4-yl)amino)-3-(3-(5-methylisoxazol-3-yl)ureido)phenyl)-3-phenylpropanoic acid]
< 5	CCN(c1ccc(C(C)CC(=O)O)cc1Nc1ccc(Cl)cc1)C1CCOCC1 (single isomer, unassigned) [Example 612 E2, 3-(3-((4-Chlorophenyl)amino)-4-(ethyl(tetrahydro-2H-pyran-4-yl)amino)phenyl)butanoic Acid]
< 5	CCN(c1ccc(C(C)CC(=O)O)cc1NC(=O)Nc1ccc(Cl)cc1F)C1CCOCC1 (single isomer, unassigned) [Example 637 E2, 3-(3-(3-(4-Chloro-2-fluorophenyl)ureido)-4-(ethyl (tetrahydro-2H-pyran-4-yl)amino)phenyl)butanoic Acid]
